Source: patent publication US20040127455A1, “Muscosal immunoregulatory agent and its use” (KABUSHIKI Kaisha Hayashibara Seibutsu KK, priority 2000, published 2004)

Tests used:
[1] = system: immunocompetent cells from the Peyer's patches; assay: IFN-γ production by immunocompetent cells from the Peyer's patches of orally treated mice, LPS stimulation (Experiment 1); assay type: in vivo, male C3H/HeN mice; details: 1 g/kg oral, once per day for five days, two days culture, versus non-treated mice (FIG. 1)
Procedure: The effect on response of immunocompetent cells with trehalose administration was evaluated based on the production level of IFN-γ as a merkmal when the immunocompetent cells from the Peyer's patches were stimulated with lipopolysaccharide (LPS). IFN-γ is a cytokine which also improves the production of IgA as described above. α,α-Trehalose crystalline powder (registered trademark of “TREHA”, commercialized by Hayashibara Shoji Co. Ltd., Okayama, Japan) was dissolved in distilled water and sterilized, and then administrated into male C3H/HeN, five weeks aged mice (ten mice in each group) through oral pathway for five days by one time per day with a dosage of 1 g/kg mouse body weight of α,α-trehalose. Non-α,α-trehalose administrated mice as a control were administrated with an equal volume of distilled water. All the mice were bred under a clean environment, and freely fed with a sterilized solid fodder and water. […] The cells were incubated for two days in an incubator maintained at 37° C. and 5% CO2, after that, the IFN-γ concentration in each culture was measured by a conventional enzyme immunoassay. […]

[2] = system: immunocompetent cells from the Peyer's patches; assay: IL-2, IFN-γ and IgA production by immunocompetent cells from the Peyer's patches of orally treated mice, LPS or Con A stimulation (Experiment 2); assay type: in vivo, female ddY mice; details: 0.1 g/kg oral, five times per week for four weeks, three days culture
Procedure: The effect on the response of immunocompetent cells with trehalose administration was evaluated by the production level of IL-2, IFN-γ, and IgA as a merkmal when the immunocompetent cells from the Peyer's patches stimulated with lipopolysaccharide (LPS) or Concanavalin A (Con A). Specifically, 0.1 g/kg mouse body weight of α,α-trehalose was administrated into female ddY mice through oral administration for four weeks with five times per a week, and non-α,α-trehalose administrated mice were used as a control. All the mice were anatomized and picked up all the Peyer's patches, which were then cut into pieces and treated with 0.2% (w/v) of collagenase solution at 37° C. for 30 minutes, passed through a cell strainer to remove non-digestive materials, and centrifuged to obtain a pellet. The pellet was suspended with a 45% (v/v) percol solution, and the suspension was put on a 75% (v/v) percol solution and centrifuged. Then, immunocompetent cells in an inter layer of percol were recovered and suspended in RPMI1640 medium with 10% of fetal calf serum and 5×10^−5 mol/l of 2-mercaptethanol. The resulting suspension was divided into three groups, and the two groups of which were mixed with 2 μg/ml of LPS or 5 μg/ml of Con A and adjusted a final concentration to 1×10^6 cells/ml. The resulting group as a control was not received with the above stimulation. They were incubated for three days in an incubator maintained at 37° C. and 5% CO2. Thereafter, the concentrations of the IL-2, IFN-γ and IgA concentration in the resulting cultures were measured by a conventional immunoassay method in Experiment 1.

Q: Which results are given for `OC[C@H]1O[C@H](O[C@H]2O[C@H](CO)[C@@H](O)[C@H](O)[C@H]2O)[C@H](O)[C@@H](O)[C@@H]1O` [α,α-Trehalose, α,α-trehalose]?
A: IFN-γ production with no LPS stimulation ([1]; cells with 0 μg/ml LPS): tendency to decrease IFN-γ production; IFN-γ production under the LPS stimulation ([1]; cells with 0.2 or 1 μg/ml LPS): stronger tendency of increasing production of IFN-γ; IFN-γ ([2]; no stimulation): Under 0.4 IU/ml; IL-2 ([2]; no stimulation): Under 50 pg; IgA ([2]; no stimulation): 719 ng/mL; IFN-γ ([2]; stimulation Con A 5 μg/ml): 6.4 IU/ml; IL-2 ([2]; stimulation Con A 5 μg/ml): Under 50 pg; IgA ([2]; stimulation Con A 5 μg/ml): 1671 ng/mL; IFN-γ ([2]; stimulation LPS 2 μg/ml): 4.5 IU/ml; IL-2 ([2]; stimulation LPS 2 μg/ml): 115 pg; IgA ([2]; stimulation LPS 2 μg/ml): 2305 ng/mL
